Legend:
[1] = Solution stability, related substances HPLC method validation (Method 1); details: standard solution at 5° C.; related substances Method 1
Description: Chromatographic Parameters for method validation of Related Substance of Sovateltide Injection (Method 1): Method-1 utilizes chromatographic conditions to separate and quantify a specific compound of interest. The analytical column used is either the Xtimate C18 Column or the ChromCore 120 C18 Column, both with dimensions of 4.6×250 mm and 5 m. A Ghost Buster Column with dimensions of 4.6×50 mm is used to detect any unexpected peaks, which are usually called ghost peaks that may interfere with the results. The flow rate is set to 0.5 mL/min, with an injection volume of 90 μL. The detection wavelength is 215 nm, and the auto sampler temperature is maintained at 5° C. The column oven temperature is set to 50° C., and the run time for the method is 120 min. […] These parameters ensure the separation and accurate quantification of the compound in the sample.
• Mobile Phase A (KH2PO4+ Sodium Chloride in HPLC water). • Mobile Phase-B (Methanol).

[2] = system: acute cerebral ischemic stroke patients; assay: Phase III study in acute cerebral ischemic stroke patients, modified Rankin Scale at day 90; format: in vivo, human; details: for Odds ratio, change in mRS of 2 or more / Odds ratio, mRS of 0-2 day 90 / Relative Risk, change in mRS of 2 or more / Relative Risk, mRS of 0-2 day 90: control vs sovateltide; for Modified Rankin Scale Day 90, mean: day 90 post-randomization; for Difference between means (B − A) ± SEM, Modified Rankin Scale Day 90: sovateltide minus control
Protocol: A prospective, multicentric, randomized phase III study was conducted in acute cerebral ischemic stroke patients aged 18 years through 78 years. Patients with radiologic confirmation of ischemic stroke could be enrolled if presenting up to 24 hours after the onset of symptoms and with a modified Rankin Score (mRS) of 3 to 4 and an NIHSS (National Institute of Health Stroke Scale) score of greater than 5. Patients with intracranial haemorrhage and those receiving endovascular therapy were excluded.
Patients were randomized in a 1:1 ratio, 80 patients to the sovateltide group and 78 patients to the control (saline) group. Every patient received the standard of care (SOC) and was followed for 90 days. The study drug (normal saline or sovateltide (0.3 μg/kg) was administered in three doses administered as an intravenous bolus over 1 minute at an interval of 3 hours±1 hour on day 1, day 3, and day 6 (total sovateltide dose of 0.9 μg/kg/day).
The primary objectives were to determine the neurological outcome based on modified Rankin Scale (mRS) score, National Institute of Health Stroke Scale (NIHSS) score, and Barthel Index (BI) scale score from day 1 through day 90. In addition, quality-of-Life was measured by EuroQol-EQ-5D (EQ-5D) and stroke-specific quality-of-life (SSQoL) scores at 60 days and 90 days of treatment.
A total of 158 patients with acute cerebral ischemic stroke were enrolled in this test, of which 137 completed 90-day follow-up. Patients received saline (n=70; 45 male and 25 female) or sovateltide (n=67; 45 male and 22 female) within 24 hours of the onset of stroke. Patients received the investigational drug […] at 16.85±0.74 and 17.40±0.67 hours (mean±SEM, p=0.583) of stroke onset in control and sovateltide cohorts, respectively. The baseline characteristics and SOC in both cohorts were similar.

[3] = with cerebrolysin, listed as sovateltide
[4] = with citicoline, listed as sovateltide
[5] = with mannitol, sovateltide group n=30
[6] = with mannitol, sovateltide group n=30, listed as sovateltide
[7] = with thrombolytics, listed as sovateltide

Time standard solution is stable [1]: up to 60 Hours
Substance: succinyl-(glutamyl(9)-alanyl(11,15))-endothelin-1 (8-21) [Sovateltide]
Number of patients with change in mRS < 2 from day 1 to day 90 ([2]; with cerebrolysin): 1
Number of patients with mRS 0-2 day 90 ([2]; with cerebrolysin): 11
Number of patients with mRS > 2 day 90 ([2]; with cerebrolysin): 1
Number of patients, change in mRS of 2 or more from day 1 to day 90 (column head mRS > 2) ([2]; with cerebrolysin): 11
Percentage of row total, change in mRS < 2 ([2]; with cerebrolysin): 8.33%
Percentage of row total, change in mRS ≥ 2 ([2]; with cerebrolysin): 91.67%
Percentage of row total, mRS 0-2 day 90 ([2]; with cerebrolysin): 91.67%
Percentage of row total, mRS > 2 day 90 ([2]; with cerebrolysin): 8.33%
Odds ratio, change in mRS of 2 or more ([2]; with cerebrolysin): 0.5455
Odds ratio, mRS of 0-2 day 90 ([2]; with cerebrolysin): 0.8462
Relative Risk, change in mRS of 2 or more ([2]; with cerebrolysin): 0.9351
Relative Risk, mRS of 0-2 day 90 ([2]; with cerebrolysin): 0.8571
Modified Rankin Scale Day 90, mean ([2]; with cerebrolysin, sovateltide group n=12): 0.7500
Number of patients with mRS 0-2 day 90 [2, 3]: similar
Number of patients, change in mRS of 2 or more from day 1 to day 90 (column head mRS > 2) [2, 3]: similar
Difference between means (B − A) ± SEM, Modified Rankin Scale Day 90 ([2]; with cerebrolysin): −0.3214 ± 0.3517
Number of patients with change in mRS < 2 from day 1 to day 90 ([2]; with citicoline): 5
Number of patients with change in mRS ≥ 2 from day 1 to day 90 ([2]; with citicoline): 18
Number of patients with mRS 0-2 day 90 ([2]; with citicoline): 21
Number of patients with mRS > 2 day 90 ([2]; with citicoline): 3
Percentage of row total, change in mRS < 2 ([2]; with citicoline): 21.74%
Percentage of row total, change in mRS ≥ 2 ([2]; with citicoline): 78.26%
Percentage of row total, mRS 0-2 day 90 ([2]; with citicoline): 87.50%
Percentage of row total, mRS > 2 day 90 ([2]; with citicoline): 12.50%
Odds ratio, change in mRS of 2 or more ([2]; with citicoline): 0.3283
Odds ratio, mRS of 0-2 day 90 ([2]; with citicoline): 4.500
Relative Risk, change in mRS of 2 or more ([2]; with citicoline): 0.6921
Relative Risk, mRS of 0-2 day 90 ([2]; with citicoline): 3.130
Modified Rankin Scale Day 90, mean ([2]; with citicoline, sovateltide group n=24): 1.208
Modified Rankin Scale Day 90, mean ([2]; with citicoline, sovateltide group n=24, listed as sovateltide): significantly lower
Number of patients with change in mRS ≥ 2 from day 1 to day 90 [2, 4]: significantly more
Number of patients with mRS 0-2 day 90 [2, 4]: significantly more
Difference between means (B − A) ± SEM, Modified Rankin Scale Day 90 ([2]; with citicoline): −0.7917 ± 0.3638
Percentage of row total, change in mRS < 2 ([2]; with mannitol): 36.67%
Percentage of row total, change in mRS ≥ 2 ([2]; with mannitol): 63.33%
Percentage of row total, mRS 0-2 day 90 ([2]; with mannitol): 63.33%
Percentage of row total, mRS > 2 day 90 ([2]; with mannitol): 36.67%
Odds ratio, change in mRS of 2 or more ([2]; with mannitol): 0.3184
Odds ratio, mRS of 0-2 day 90 ([2]; with mannitol): 2.735
Relative Risk, change in mRS of 2 or more ([2]; with mannitol): 0.5603
Relative Risk, mRS of 0-2 day 90 ([2]; with mannitol): 1.672
Modified Rankin Scale Day 90, mean [2, 5]: 2.033
Modified Rankin Scale Day 90, mean [2, 6]: significantly lower
Number of patients with change in mRS < 2 from day 1 to day 90 [2, 5]: 11
Number of patients with change in mRS ≥ 2 from day 1 to day 90 [2, 5]: 19
Number of patients with mRS 0-2 day 90 [2, 5]: 19
Number of patients with mRS > 2 day 90 [2, 5]: 11
Number of patients with change in mRS ≥ 2 from day 1 to day 90 [2, 6]: significantly more
Number of patients with mRS 0-2 day 90 [2, 6]: significantly more
Difference between means (B − A) ± SEM, Modified Rankin Scale Day 90 ([2]; with mannitol): −0.7086 ± 0.3316
Number of patients with change in mRS < 2 from day 1 to day 90 ([2]; with thrombolytics): 3
Number of patients with change in mRS ≥ 2 from day 1 to day 90 ([2]; with thrombolytics): 6
Number of patients with mRS 0-2 day 90 ([2]; with thrombolytics): 6
Number of patients with mRS > 2 day 90 ([2]; with thrombolytics): 3
Percentage of row total, change in mRS < 2 ([2]; with thrombolytics): 33.33%
Percentage of row total, change in mRS ≥ 2 ([2]; with thrombolytics): 66.67%
Percentage of row total, mRS 0-2 day 90 ([2]; with thrombolytics): 66.67%
Percentage of row total, mRS > 2 day 90 ([2]; with thrombolytics): 33.33%
Odds ratio, change in mRS of 2 or more ([2]; with thrombolytics): 0.7500
Odds ratio, mRS of 0-2 day 90 ([2]; with thrombolytics): 1.333
Relative Risk, change in mRS of 2 or more ([2]; with thrombolytics): 0.9000
Relative Risk, mRS of 0-2 day 90 ([2]; with thrombolytics): 1.200
Modified Rankin Scale Day 90, mean ([2]; with thrombolytics, sovateltide group n=9): 1.667
Number of patients with change in mRS ≥ 2 from day 1 to day 90 [2, 7]: similar
Number of patients with mRS 0-2 day 90 [2, 7]: similar
Difference between means (B − A) ± SEM, Modified Rankin Scale Day 90 ([2]; with thrombolytics): −0.2833 ± 0.6321

— patent US20260130858A1, “LYOPHILIZED SOVATELTIDE-BASED INJECTABLE FORMULATION AND A PROCESS FOR PREPARATION” (PHARMAZZ, INC., priority 2023, published 2026)
